Test results from US20260001914A1, “MACROCYCLIC PEPTIDES TARGETING KRAS” (Merck Sharp & Dohme LLC, priority 2022, published 2026).
*1 amine or outer side, *2 acyl side, *3 side chain or, on linkers, in order; H or OH if unused. Where a SMILES comes first, the peptide text is derived from it. Bridges are numbered along the chain shown (N, C = ends). [ ]: non-standard residue; d: D form. X34 = O=C(C[C@@H](Cc1ccccc1)C(=O)[*:2])C12CC(CN[*:1])(C1)C2; NMeNva(5-imidazol-1-yl) = CN[C@@H](CCCn1ccnc1)C(=O)O; Phe(4-guanidino) = N=C(N)Nc1ccc(C[C@H](N)C(=O)O)cc1; X59 = O=C([C@H](Cc1ccc(CN2CCCC2)cc1)N[*:1])[*:2]; X77 = O=C([C@H](Cc1cnn(C2CCOCC2)c1)N[*:1])[*:2]; Ala(pyrimidin-5-yl) = N[C@@H](Cc1cncnc1)C(=O)O; NMe3Pal(6-Me) = CN[C@@H](Cc1ccc(C)nc1)C(=O)O; NMePhe(3-Me) = CN[C@@H](Cc1cccc(C)c1)C(=O)O; X27 = Cc1ccc(C[C@H](N[*:1])C(=O)[*:2])cn1; X57 = Cn1ccc(C[C@H](N[*:1])C(=O)[*:2])n1; NMeArg(Me) = CNC(=N)NCCC[C@H](NC)C(=O)O; Nle(5,5-F2) = CC(F)(F)CC[C@H](N)C(=O)O; 1Nal = N[C@@H](Cc1cccc2ccccc12)C(=O)O; X35 = CN([C@@H](CCCF)C(=O)[*:2])[*:1]; Phe(2-F) = N[C@@H](Cc1ccccc1F)C(=O)O; X31 = O=C([C@H](CCC1CC1)N[*:1])[*:2]; X70 = O=C(C1CC2(C1)CN([*:1])C2)[*:2]; NMe3Pal = CN[C@@H](Cc1cccnc1)C(=O)O; X1 = O=C(C12CC(CN[*:1])(C1)C2)[*:2]; X38 = NC(=O)CCCN(CC(=O)[*:2])[*:1]; NMeOrn(Me) = CNCCC[C@H](NC)C(=O)O; Ala(cPr) = N[C@@H](CC1CC1)C(=O)O; NMeF = CN[C@@H](Cc1ccccc1)C(=O)O; PhLac = O=C(O)[C@@H](O)Cc1ccccc1; 3Pal = N[C@@H](Cc1cccnc1)C(=O)O; 3Thi = N[C@@H](Cc1ccsc1)C(=O)O; Ahp(2) = CCCCC[C@H](N)C(=O)O; Cba = N[C@@H](CC1CCC1)C(=O)O; hLeu = CC(C)CC[C@H](N)C(=O)O; hLys = NCCCCC[C@H](N)C(=O)O; αMeC = C[C@](N)(CS)C(=O)O; NMeA = CN[C@@H](C)C(=O)O; Nle = CCCC[C@H](N)C(=O)O

Target: KRAS-G12D protein (Homo sapiens, UniProt P01116, G12D)
Sequence (P01116 1-188 isoform P01116-2 G12D): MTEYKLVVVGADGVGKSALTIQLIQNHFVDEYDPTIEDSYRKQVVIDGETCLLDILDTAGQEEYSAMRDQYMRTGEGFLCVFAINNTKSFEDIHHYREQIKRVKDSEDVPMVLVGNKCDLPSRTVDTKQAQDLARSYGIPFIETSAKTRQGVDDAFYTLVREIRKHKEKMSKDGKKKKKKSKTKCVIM
Experiment: SOS-mediated nucleotide exchange assay (BODIPY-GDP / Tb-streptavidin TR-FRET)
Type: biochemical
Conditions: not given

SMILES	EC50
C[C@H]1C(=O)N[C@@H](Cc2cncnc2)C(=O)N[C@@H](CC2CC2)C(=O)N[C@@H](Cc2ccccc2F)C(=O)N[C@@H](CCC(C)(F)F)C(=O)N(C)[C@@H](Cc2ccccc2)C(=O)NCC23CC(C2)(C3)C(=O)C[C@@H](Cc2ccccc2)C(=O)N1C [compound 290, cyclo(CPhe-NMeA~PyrimAla-cPrA-Phe2F-Nle3F2-NMeF-amBCP)] (cyclo([Ala(cPr)][Phe(2-F)][Nle(5,5-F2)][NMeF][X34][NMeA][Ala(pyrimidin-5-yl)]))	2 nM
CCCC[C@@H]1NC(=O)[C@H](Cc2ccc(OC)cc2)NC(=O)[C@H](CC2CCC2)NC(=O)[C@H](Cc2cccnc2)NC(=O)[C@H](CCCNC(=N)N)NC(=O)[C@H](Cc2ccccc2)NC(=O)C2CC3(C2)CN(C3)C(=O)[C@H](Cc2ccccc2)N(C)C1=O [compound 102, cyclo(F-R-3Pal-cBuA-TyrOMe-Nlc-NMeF-spiro44)] (cyclo(FR[3Pal][Cba]Y(Me)[Nle][NMeF][X70]))	7340 nM
CCCC[C@@H]1NC(=O)[C@H](Cc2cccnc2)NC(=O)[C@H](C)N(C)C(=O)[C@H](Cc2ccccc2)OC(=O)C23CC(CNC(=O)[C@H](Cc4cccnc4)N(C)C(=O)[C@H](CCC(C)C)NC(=O)[C@H](Cc4ccccc4F)NC1=O)(C2)C3 [compound 124, cyclo(FLac-NMeA-3Pal-Nle-Phe2F-hL-NMe3Pal-amBCP)] (cyclo([3Pal][Nle][Phe(2-F)][hLeu][NMe3Pal][X1][PhLac][NMeA]))	2.17 nM
CCCC[C@@H]1NC(=O)[C@H](Cc2ccsc2)NC(=O)[C@H](C)N(C)C(=O)[C@H](Cc2ccccc2)OC(=O)C23CC(CNC(=O)[C@H](Cc4ccccc4)N(C)C(=O)[C@H](CCCC)NC(=O)[C@H](Cc4ccccc4F)NC1=O)(C2)C3 [compound 318, cyclo(FLac-NMeA-3Thi-Nle-Phe2F-Nle-NMeF-amBCP)] (cyclo([3Thi][Nle][Phe(2-F)][Nle][NMeF][X1][PhLac][NMeA]))	527 nM
CC(C)CC[C@@H]1NC(=O)[C@H](Cc2ccccc2F)NC(=O)[C@H](CC2CC2)NC(=O)[C@H](Cc2cccnc2)NC(=O)[C@H](C)N(C)C(=O)[C@H](Cc2ccccc2)OC(=O)C23CC(CNC(=O)[C@H](Cc4cccnc4F)N(C)C1=O)(C2)C3 (single isomer, unassigned) [compound 297, cyclo(FLac-NMeA-3Pal-cPrA-Phe2F-hL-NMe3Pal2F-amBCP)]	4 nM
CCCC[C@@H]1NC(=O)[C@H](Cc2ccc(CN3CCCC3)cc2)NC(=O)[C@H](CCCn2ccnc2)N(C)C(=O)[C@H](Cc2ccccc2)N(C)C(=O)C23CC(CNC(=O)[C@H](Cc4cccnc4)N(C)C(=O)[C@H](CCCC)NC(=O)[C@H](Cc4ccccc4F)NC1=O)(C2)C3 [compound 259, cyclo(NMeF-NMeNvalmid-Phe4cPyrr-Nle-Phe2F-Nle-NMe3Pal-amBCP)] (cyclo([NMe3Pal][X1][NMeF][NMeNva(5-imidazol-1-yl)][X59][Nle][Phe(2-F)][Nle]))	3220 nM
CC(C)CC[C@@H]1NC(=O)[C@H](Cc2ccccc2F)NC(=O)[C@H](CC2CC2)NC(=O)[C@H](Cc2cncnc2)NC(=O)[C@H](CCCF)N(C)C(=O)[C@H](Cc2ccccc2)OC(=O)C23CC(CNC(=O)[C@H](Cc4ccccc4)N(C)C1=O)(C2)C3 [compound 216, cyclo(FLac-NMeNvaF-PyrimAla-cPrA-Phe2F-hL-NMeF-amBCP)] (cyclo([Ala(cPr)][Phe(2-F)][hLeu][NMeF][X1][PhLac][X35][Ala(pyrimidin-5-yl)]))	26 nM
CC(C)C[C@@H]1NC(=O)[C@H](Cc2ccc(O)cc2)NC(=O)[C@H](CCCNC(=N)N)NC(=O)[C@H](Cc2ccccc2)NC(=O)CSC[C@@H](C(N)=O)NC(=O)[C@H](Cc2ccccc2)N(C)C(=O)[C@H](CCCCCN)NC(=O)[C@H](Cc2ccc(O)cc2)NC1=O [compound 13, cyclo(F-R-Y-L-Y-hK-NMcF-Cl-ClAc)] ({CH2CO}-FRYLY[hLys][NMeF]C-NH2; thioether N-8)	5630 nM
CCCC[C@@H]1NC(=O)[C@H](COC)NC(=O)[C@H](CC2CCC2)NC(=O)[C@H](Cc2cccnc2)NC(=O)[C@H](CCCNC(=N)N)NC(=O)[C@H](Cc2ccccc2)NC(=O)CSC[C@@](C)(C(N)=O)NC(=O)[C@H](Cc2ccccc2)N(C)C1=O [compound 52, cyclo(F-R-3Pal-cBuA-SerOMe-Nle-NMeF-aMeCl-ClAc)] ({CH2CO}-FR[3Pal][Cba]S(Me)[Nle][NMeF][αMeC]-NH2; thioether N-8)	943 nM
CCCC[C@@H]1NC(=O)[C@H](Cc2cccnc2)NC(=O)[C@H](C)N(C)C(=O)[C@H](Cc2ccc(C)nc2)NC(=O)C23CC(CNC(=O)[C@H](Cc4cccnc4)N(C)C(=O)[C@H](CCCC)NC(=O)[C@H](Cc4ccccc4F)NC1=O)(C2)C3 [compound 164, cyclo(4Me3Pal-NMeA-3Pal-Nle-Phe2F-Nle-NMe3Pal-amBCP)] (cyclo([3Pal][Nle][Phe(2-F)][Nle][NMe3Pal][X1][X27][NMeA]))	2890 nM
Cc1cccc(C[C@H]2C(=O)NCC34CC(C3)(C4)C(=O)O[C@@H](Cc3ccccc3)C(=O)N(C)[C@@H](C)C(=O)N[C@@H](Cc3cncnc3)C(=O)N[C@@H](CC3CC3)C(=O)N[C@@H](Cc3ccccc3F)C(=O)N[C@@H](CCC(C)(F)F)C(=O)N2C)c1 [compound 275, cyclo(FLac-NMeA-PyrimAla-cPrA-Phe2F-Nle3F2-NMePhe3Me-amBCP)] (cyclo([Ala(cPr)][Phe(2-F)][Nle(5,5-F2)][NMePhe(3-Me)][X1][PhLac][NMeA][Ala(pyrimidin-5-yl)]))	1 nM
C[C@H]1C(=O)N[C@@H](Cc2cncnc2)C(=O)N[C@@H](CC2CC2)C(=O)N[C@@H](Cc2ccccc2F)C(=O)N[C@@H](CCC2CC2)C(=O)N(C)[C@@H](Cc2ccccc2)C(=O)NCC23CC(C2)(C3)C(=O)O[C@@H](Cc2ccccc2)C(=O)N1C [compound 114, cyclo(FLac-NMeA-PyrimAla-cPrA-Phe2F-hcPrA-NMeF-amBCP)] (cyclo([Ala(cPr)][Phe(2-F)][X31][NMeF][X1][PhLac][NMeA][Ala(pyrimidin-5-yl)]))	2 nM
CCCCC[C@@H]1NC(=O)[C@H](Cc2ccc(OC)cc2)NC(=O)[C@H](CC2CCC2)NC(=O)[C@H](Cc2ccc(NC(=N)N)cc2)NC(=O)[C@H](CCCNC(=N)NC)N(C)C(=O)[C@H](Cc2ccccc2)NC(=O)CSC[C@@](C)(C(N)=O)NC(=O)[C@H](Cc2ccccc2)N(C)C1=O [compound 380, cyclo(F-NMeArgMe-Phe4Gn-cBuA-TyrOMe-Abp-NMeF-aMeCl-ClAc)] ({CH2CO}-F[NMeArg(Me)][Phe(4-guanidino)][Cba]Y(Me)[Ahp(2)][NMeF][αMeC]-NH2; thioether N-8)	1.68 nM
C[C@H]1C(=O)N[C@@H](Cc2cncnc2)C(=O)N[C@@H](CC2CC2)C(=O)N[C@@H](Cc2ccccc2F)C(=O)NC2CC/C=C\CC[C@@H](C(=O)NCC34CC(C3)(C4)C(=O)O[C@@H](Cc3ccccc3)C(=O)N1C)N(C)C2=O [SEQ ID NO: 182, cyclo(FLac-NMeA-PyrimAla-cPrA-Phe2F-Hag-NMeHag-amBCP)]	225 nM
CCCC[C@@H]1NC(=O)[C@H](Cc2cccnc2)NC(=O)[C@H](CCCNC(=N)N)NC(=O)[C@H](Cc2ccccc2)NC(=O)CSC[C@@](C)(C(=O)N(C)C)NC(=O)[C@H](Cc2cccnc2)N(C)C(=O)[C@H](CCCC)NC(=O)[C@H](Cc2ccccc2F)NC1=O [compound 184, cyclo(F-R-3Pal-Nle-Phe2F-Nle-NMe3Pal-aMeC7-ClAc)] ({CH2CO}-FR[3Pal][Nle][Phe(2-F)][Nle][NMe3Pal][αMeC]-NMe2; thioether N-8)	728 nM
CCCC[C@@H]1NC(=O)[C@H](Cc2cnn(C3CCOCC3)c2)NC(=O)[C@H](C)N(C)C(=O)[C@H](Cc2ccccc2)OC(=O)C23CC(CNC(=O)[C@H](Cc4ccccc4)N(C)C(=O)[C@H](CCCC)NC(=O)[C@H](Cc4ccccc4F)NC1=O)(C2)C3 [compound 308, cyclo(FLac-NMeA-AlaPyzlTHP4-Nle-Phe2F-Nle-NMeF-amBCP)] (cyclo([NMeA][X77][Nle][Phe(2-F)][Nle][NMeF][X1][PhLac]))	6.86 nM
CCCCC[C@@H]1NC(=O)[C@H](Cc2ccc(OC)cc2)NC(=O)[C@H](CC2CCC2)NC(=O)[C@H](Cc2ccc(NC(=N)N)cc2)NC(=O)CN(CCCC(N)=O)C(=O)[C@H](Cc2ccccc2)NC(=O)CSC[C@@](C)(C(N)=O)NC(=O)[C@H](Cc2ccccc2)N(C)C1=O [compound 386, cyclo(F-Cmpg-Phe4Gn-cBuA-TyrOMe-Abp-NMeF-aMeCl-ClAc)] ({CH2CO}-F[X38][Phe(4-guanidino)][Cba]Y(Me)[Ahp(2)][NMeF][αMeC]-NH2; thioether N-8)	134 nM
CCCCC[C@@H]1NC(=O)[C@H](Cc2ccc(OC)cc2)NC(=O)[C@H](CC2CCC2)NC(=O)[C@H](Cc2cccnc2)NC(=O)[C@H](CCCNC)N(C)C(=O)[C@H](Cc2ccccc2)NC(=O)CSC[C@@](C)(C(N)=O)NC(=O)[C@H](Cc2ccc(C)nc2)N(C)C1=O [compound 393, cyclo(F-NMeOrnMe-3Pal-cBuA-TyrOMe-Ahp-NMe3Pal4Me-aMeCl-ClAc)] ({CH2CO}-F[NMeOrn(Me)][3Pal][Cba]Y(Me)[Ahp(2)][NMe3Pal(6-Me)][αMeC]-NH2; thioether N-8)	132 nM
CCCC[C@@H]1NC(=O)[C@H](Cc2ccn(C)n2)NC(=O)[C@H](C)N(C)C(=O)[C@H](Cc2ccccc2)OC(=O)C23CC(CNC(=O)[C@H](Cc4ccccc4)N(C)C(=O)[C@H](CCCC)NC(=O)[C@H](Cc4ccccc4F)NC1=O)(C2)C3 [compound 319, cyclo(FLac-NMeA-MePyzAla-Nle-Phe2F-Nle-NMeF-amBCP)] (cyclo([NMeA][X57][Nle][Phe(2-F)][Nle][NMeF][X1][PhLac]))	5070 nM
CCCC[C@@H]1NC(=O)[C@H](Cc2ccc(NC(=N)N)cc2)NC(=O)[C@H](CCCNC(=N)N)NC(=O)[C@H](Cc2cccc3ccccc23)NC(=O)CNC(=O)[C@H](C)NC(=O)[C@H](Cc2ccccc2)N(C)C(=O)[C@H](CCCC)NC(=O)[C@H](Cc2ccc(O)cc2)NC1=O [compound 199, cyclo(INal-R-Phe4Gn-Nle-Y-Nle-NMeF-A-G)] (cyclo([1Nal]R[Phe(4-guanidino)][Nle]Y[Nle][NMeF]AG))	346 nM

Same assay, conditions: listed as 190

SMILES	EC50
COc1ccc(C[C@@H]2NC(=O)[C@H](CC3CCC3)NC(=O)[C@H](Cc3cccnc3)NC(=O)[C@H](CCCNC(=N)N)NC(=O)[C@H](Cc3ccccc3)NC(=O)CSC[C@](C)(C(N)=O)NC(=O)[C@@H]3CCCCCCC[C@H](NC2=O)C(=O)N3C)cc1 (single isomer, unassigned) [SEQ ID NO: 190]	650 nM
